{
  "source": "patent US20060030603A1",
  "about": "“Novel aryl urea analogs and use thereof as antibacterial agents” (priority 2004, published 2006)",
  "data": [
    {"system": "S. aureus ATCC 13709", "assay": "MIC assay, S. aureus", "format": "cell-based", "settings": "Staphylococcus aureus, ATCC13709, read-out: MIC S. aureus", "method": "(§1) In vitro structure/activity relationship (“SAR”) tests were performed according to the following procedure: MIC assays were carried out in a 150 μL volume in duplicate in 96-well clear flat-bottom plates. The bacterial suspension from an overnight culture growth in the appropriate medium was added to a solution of test compound in 0.5% DMSO in water. Final bacterial inoculum was approximate 10^3-10^4 CFU/well. The percentage growth of the bacteria in the test wells relative to that observed for a control well containing no compound was determined by measuring absorbance at 595 nm (A595) after 20-24 h at 37° C. […] The bacterial strains used for the assays include S. aureus ATCC 13709, S. pyogenes ATCC 49399, E. faecalis ATCC 29212, E. faecium ATCC 6569, E. coli ATCC 25922, K. pneumoniae ATCC 13383, P. vulgaris ATCC 8427, P. aeruginosa ATCC 25416. The results of the in vitro SAR tests are in Tables 1-3.", "units": {"MIC": "µM"}, "values": [
      {"smiles": "S=C(NCCCNCc1cc(Br)cc(Br)c1)Nc1ccc(Cl)c(Cl)c1", "note": "[8k, 1-[3-(3,5-Dibromo-benzylamino)-propyl]-3-(3,4-dichloro-phenyl)-thiourea]", "MIC": "3 to 6"},
      {"smiles": "O=C(NCCCNCc1cc(Br)cc(Br)c1)Nc1ccc(C(F)(F)F)cc1", "note": "[9d, 1-[3-(3,5-Dibromo-benzylamino)-propyl]-3-(4-trifluoromethyl-phenyl)-urea]", "MIC": "3 to 6"}
    ]},
    {"system": "S. aureus ATCC 13709", "assay": "MIC assay, S. aureus", "format": "cell-based", "settings": "Table 1, thiourea/urea analogs, acetate salts", "method": "as §1", "units": {"MIC S. aureus": "µM"}, "values": [
      {"smiles": "Fc1ccccc1NC(=S)NCCCNCc1cc(Br)cc(Br)c1", "note": "[8a]", "MIC S. aureus": "25 to 50"},
      {"smiles": "CSc1ccccc1NC(=S)NCCCNCc1cc(Br)cc(Br)c1", "note": "[8d]", "MIC S. aureus": "50 to 100"},
      {"smiles": "Fc1ccc(NC(=S)NCCCNCc2cc(Br)cc(Br)c2)c(F)c1F", "note": "[8e]", "MIC S. aureus": "6 to 12"},
      {"smiles": "Fc1cccc(NC(=S)NCCCNCc2cc(Br)cc(Br)c2)c1", "note": "[8f]", "MIC S. aureus": "12 to 25"},
      {"smiles": "S=C(NCCCNCc1cc(Br)cc(Br)c1)Nc1cccc(Cl)c1", "note": "[8g]", "MIC S. aureus": "6 to 12"},
      {"smiles": "S=C(NCCCNCc1cc(Br)cc(Br)c1)Nc1cccc(Br)c1", "note": "[8h]", "MIC S. aureus": "6 to 12"},
      {"smiles": "FC(F)(F)c1cccc(NC(=S)NCCCNCc2cc(Br)cc(Br)c2)c1", "note": "[8i]", "MIC S. aureus": "6 to 12"},
      {"smiles": "COc1cccc(NC(=S)NCCCNCc2cc(Br)cc(Br)c2)c1", "note": "[8j]", "MIC S. aureus": "25 to 50"},
      {"smiles": "Fc1ccc(NC(=S)NCCCNCc2cc(Br)cc(Br)c2)cc1", "note": "[8l]", "MIC S. aureus": "12 to 25"},
      {"smiles": "S=C(NCCCNCc1cc(Br)cc(Br)c1)Nc1ccc(Cl)cc1", "note": "[8m]", "MIC S. aureus": "6 to 12"},
      {"smiles": "S=C(NCCCNCc1cc(Br)cc(Br)c1)Nc1ccc(Br)cc1", "note": "[8n]", "MIC S. aureus": "12 to 25"},
      {"smiles": "S=C(NCCCNCc1cc(Br)cc(Br)c1)Nc1ccc(I)cc1", "note": "[8o]", "MIC S. aureus": "12 to 25"},
      {"smiles": "FC(F)(F)c1ccc(NC(=S)NCCCNCc2cc(Br)cc(Br)c2)cc1", "note": "[8p]", "MIC S. aureus": "6 to 12"},
      {"smiles": "O=[N+]([O-])c1ccc(NC(=S)NCCCNCc2cc(Br)cc(Br)c2)cc1", "note": "[8q]", "MIC S. aureus": "12 to 25"},
      {"smiles": "Cc1ccc(NC(=S)NCCCNCc2cc(Br)cc(Br)c2)cc1", "note": "[8r]", "MIC S. aureus": "12 to 25"},
      {"smiles": "N#Cc1ccc(NC(=S)NCCCNCc2cc(Br)cc(Br)c2)cc1", "note": "[8s]", "MIC S. aureus": "25 to 50"},
      {"smiles": "COc1ccc(NC(=S)NCCCNCc2cc(Br)cc(Br)c2)cc1", "note": "[8t]", "MIC S. aureus": "25 to 50"},
      {"smiles": "COc1ccccc1NC(=O)NCCCNCc1cc(Br)cc(Br)c1", "note": "[9a]", "MIC S. aureus": "25 to 50"},
      {"smiles": "O=C(NCCCNCc1cc(Br)cc(Br)c1)Nc1cccc(C(F)(F)F)c1", "note": "[9b]", "MIC S. aureus": "6 to 12"},
      {"smiles": "O=C(NCCCNCc1cc(Br)cc(Br)c1)Nc1ccc(Cl)cc1", "note": "[9c]", "MIC S. aureus": "6 to 12"},
      {"smiles": "CSc1ccc(NC(=O)NCCCNCc2cc(Br)cc(Br)c2)cc1", "note": "[9e]", "MIC S. aureus": "25 to 50"},
      {"smiles": "O=C(NCCCNCc1cc(Br)cc(Br)c1)Nc1ccc(OC(F)(F)F)cc1", "note": "[9g]", "MIC S. aureus": "6 to 12"}
    ]},
    {"system": "S. aureus ATCC 13709", "assay": "MIC assay, S. aureus", "format": "cell-based", "settings": "Table 1, thiourea/urea analogs, acetate salts; read-out: MIC S. aureus", "method": "as §1", "units": {"MIC": "µM"}, "values": [
      {"smiles": "COc1ccccc1NC(=S)NCCCNCc1cc(Br)cc(Br)c1", "note": "[8c]", "MIC": ">100"}
    ]},
    {"system": "S. aureus ATCC 13709", "assay": "MIC assay, S. aureus", "format": "cell-based", "settings": "Table 2, benzylamino group modified analogs", "method": "as §1", "units": {"MIC S. aureus": "µM"}, "values": [
      {"smiles": "O=C(NCCCNCc1cc(Br)cc(Br)c1)Nc1ccc(C(F)(F)F)cc1", "note": "[9d, 1-[3-(3,5-Dibromo-benzylamino)-propyl]-3-(4-trifluoromethyl-phenyl)-urea]", "MIC S. aureus": "3 to 6"},
      {"smiles": "O=C(NCCCNCc1ccccc1OC(F)(F)F)Nc1ccc(C(F)(F)F)cc1", "note": "[12b]", "MIC S. aureus": "12 to 25"},
      {"smiles": "O=C(NCCCNCc1cccc(-c2ccccc2)c1)Nc1ccc(C(F)(F)F)cc1", "note": "[12c]", "MIC S. aureus": "6 to 12"},
      {"smiles": "O=C(NCCCNCc1ccc(OC(F)(F)F)cc1)Nc1ccc(C(F)(F)F)cc1", "note": "[12d]", "MIC S. aureus": "3 to 6"},
      {"smiles": "COc1ccc(-c2ccc(CNCCCNC(=O)Nc3ccc(C(F)(F)F)cc3)cc2)cc1", "note": "[12f]", "MIC S. aureus": "3 to 6"},
      {"smiles": "COc1ccccc1-c1ccc(CNCCCNC(=O)Nc2ccc(C(F)(F)F)cc2)cc1", "note": "[12g]", "MIC S. aureus": "6 to 12"},
      {"smiles": "CN(C)c1ccc(CNCCCNC(=O)Nc2ccc(C(F)(F)F)cc2)cc1", "note": "[12j]", "MIC S. aureus": "12 to 25"},
      {"smiles": "O=C(NCCCNCc1cc(Cl)cc(Cl)c1)Nc1ccc(C(F)(F)F)cc1", "note": "[12m]", "MIC S. aureus": "6 to 12"},
      {"smiles": "O=C(NCCCNCc1cc(F)cc(F)c1)Nc1ccc(C(F)(F)F)cc1", "note": "[12n]", "MIC S. aureus": "50 to 100"},
      {"smiles": "O=C(NCCCNCc1cc(C(F)(F)F)cc(C(F)(F)F)c1)Nc1ccc(C(F)(F)F)cc1", "note": "[12o]", "MIC S. aureus": "50 to 100"},
      {"smiles": "COc1cc(CNCCCNC(=O)Nc2ccc(C(F)(F)F)cc2)cc(OC)c1", "note": "[12p]", "MIC S. aureus": "50 to 100"}
    ]},
    {"system": "S. aureus ATCC 13709", "assay": "MIC assay, S. aureus", "format": "cell-based", "settings": "Table 2, benzylamino group modified analogs; read-out: MIC S. aureus", "method": "as §1", "units": {"MIC": "µM"}, "values": [
      {"smiles": "CC(=O)Nc1ccc(CNCCCNC(=O)Nc2ccc(C(F)(F)F)cc2)cc1", "note": "[12k]", "MIC": ">100"}
    ]}
  ]
}
